Laboratory results from paper PMC12083017, “Enhanced oral bioavailability of two Cistanche polysaccharides in acteoside: an in-depth analysis of intestinal flora, short-chain fatty acids, and pharmacokinetic regulation” (Frontiers in Nutrition, 2025).
Where two headings read alike, the source gives them in different places. Values belong to the compound of their own block, whether it stands above or below them.

Key:
[1] = type: physicochemical; conditions: rat; for Short-term stability (RSD,%): 4 h; for Post-preparation stability (RSD,%): 24 h; for Long-term stability (RSD,%): 15 days
Procedure: A 4°C freezer was then used to make and store the stock solution (1 mg/mL). Moreover, 50% methanol was used to dilute 1 μg/mL of the IS working solution. […] Before being analyzed, the entire set of QC samples were kept at −80°C. An examination of stability using QC samples at low, medium, and high doses. Short-term stability was measured by injecting samples after staying 4 h at room temperature (25°C). After preparation, the sample was kept at 4°C for 24 h, and the dosage was injected to ascertain the sample’s stability. To determine long-term stability, samples were frozen at −80°C for 15 days before being injected. By thawing the samples three times in a row at room temperature and a freezer at −20°C, the freeze–thaw stability was ascertained.

[2] = Pharmacokinetics of acteoside and its metabolites in rat plasma after oral acteoside (UPLC-QqQ-MS); type: in vivo, male Sprague–Dawley rats; conditions: for AUC(0-inf) / AUC(0-t) / Tmax / half-life / Cmax / MRT last / MRT inf: male, Sprague-Dawley, rat, plasma, po, 100 mg/kg; for MRT last: read-out: MRT(0-t); for MRT inf: read-out: MRT(0-∞); for Cmax of metabolite, WCP group relative to UCP group: following oral acteoside 100 mg/kg
Excerpt: After a week of acclimatization, rats were split into three groups at random: the wine-processed Cistanche polysaccharide group (WCP group), the unprocessed Cistanche polysaccharide group (UCP group), and the blank control group (Control group). Six rats each group were raised in the same cage for breeding. Prior to the experiment, provide water and regular laboratory meals to the rats at will and fast for one night before the experiment. In order to ensure the continuous intake of Cistanche polysaccharides, it was calculated according to the requirements of the Chinese Pharmacopoeia ([16]) based on the daily dosage of Cistanche for adults, the polysaccharide yield of Cistanche polysaccharides and the equivalent conversion formula of the drug administration between humans and rats ([17]). An appropriate amount of raw Cistanche polysaccharide and Cistanche wine polysaccharide were weighed, dissolved in pure water, and prepared with 15.06 g·kg^-1 administration solution for continuous administration for 21 days. After fasting overnight, on day 22, two fresh fecal samples were collected from each rat, put straight into a sterile tube from the anus, avoiding contact with skin or urine, and stored in a -80°C freezer immediately after freezing with liquid nitrogen for subsequent analysis. For the pharmacokinetics, in a 1.5 mL heparinized centrifuge tube, 0.3 mL of continuous blood collected from the orbital vein was taken from 0 min, 5 min, 10 min, 30 min, 1.0 […], and 36 h following oral administration of acteoside (100 mg/kg) in the three groups. Using a cryo-centrifuge, plasma samples were produced by centrifuging at 800 g for ten minutes at 4°C. After that, plasma samples were gathered and kept for later examination at -80°C. […] Following this,20 μL of genistein (1 μg/mL IS) solution and 600 μL of cold acetonitrile were then included and centrifuged for 5 min, the […] proteins were separated by vortexing for 5 min, and then they were spun down for 15 min at 4°C at 14,000 rpm. The supernatant was gathered and dried at 40°C with a light nitrogen stream. The dried remnant was then immersed in 100 μL of 25% aqueous acetonitrile fluid, and centrifugation was performed again for 10 min at 4°C at 14,000 rpm. Ultimately, the LC-MS/MS system was injected with 2 μL of the liquid for analysis. A 1.7 μm and 2.1 × 100 mm I.D. […] With a column temperature of 30°C, the flow rate was fixed at 0.3 mL/min. In the mass spectrometry analysis, negative ionization mode was performed with the following optimized parameters: capillary voltage, 3.0 kV; desolvation temperature, 400°C. […] Thus, multiple reaction monitoring (MRM) of the acteoside transitions at 623.37 → 161.02 m/z, caffeic acid transitions at 179.01 → 135.03 m/z, hydroxytyrosol transitions at 153.03 → 122.95 m/z, genistein transitions at 269.08 → 132.57 m/z was used for quantification. […] Data were processed using Masslynx workstation data acquisition and qualitative analysis software (4.1, Waters, USA). Using the DAS program (Chinese Pharmacological Society, Beijing, China), pharmacokinetic parameters were estimated.

[3] = acteoside in rat plasma, oral acteoside 100 mg/kg, Control group, n = 6
[4] = acteoside in rat plasma, oral acteoside 100 mg/kg, UCP group, n = 6
[5] = acteoside in rat plasma, oral acteoside 100 mg/kg, WCP group, n = 6
[6] = metabolite in rat plasma following oral acteoside 100 mg/kg, Control group, n = 6
[7] = metabolite in rat plasma following oral acteoside 100 mg/kg, Control group, n = 6, read-out: Cmax
[8] = metabolite in rat plasma following oral acteoside 100 mg/kg, UCP group, n = 6
[9] = metabolite in rat plasma following oral acteoside 100 mg/kg, UCP group, n = 6, read-out: Cmax
[10] = metabolite in rat plasma following oral acteoside 100 mg/kg, WCP group, n = 6
[11] = metabolite in rat plasma following oral acteoside 100 mg/kg, WCP group, n = 6, read-out: Cmax

Freeze–thaw stability (RSD,%) ([1]; 25 ng/mL): 7.93%
Freeze–thaw stability (RSD,%) ([1]; 200 ng/mL): 4.56%
Freeze–thaw stability (RSD,%) ([1]; 1000 ng/mL): 4.45%
Short-term stability (RSD,%) ([1]; 25 ng/mL): 6.91%
Short-term stability (RSD,%) ([1]; 200 ng/mL): 3.15%
Short-term stability (RSD,%) ([1]; 1000 ng/mL): 2.79%
Post-preparation stability (RSD,%) ([1]; 25 ng/mL): 7.03%
Post-preparation stability (RSD,%) ([1]; 200 ng/mL): 3.46%
Post-preparation stability (RSD,%) ([1]; 1000 ng/mL): 3.68%
Long-term stability (RSD,%) ([1]; 25 ng/mL): 8.28%
Long-term stability (RSD,%) ([1]; 200 ng/mL): 6.67%
Long-term stability (RSD,%) ([1]; 1000 ng/mL): 4.99%
AUC(0-inf) [2, 3]: 4360 ± 130 ng·h/mL
AUC(0-t) [2, 3]: 4200 ± 153 ng·h/mL
Tmax [2, 3]: 0.5 h
half-life [2, 3]: 2.06 ± 1.3 h
Cmax ([2]; acteoside in rat plasma, oral acteoside 100 mg/kg, Control group, n = 6, read-out: Cmax): 863 ± 63.4 ng/mL
MRT last [2, 3]: 3.94 ± 0.165 h
MRT inf [2, 3]: 4.34 ± 0.512 h
AUC(0-t) ([2]; acteoside in rat plasma, oral acteoside 100 mg/kg, UCP group (21 days UCP before), n = 6): 4980 ± 231 ng·h/mL
AUC(0-inf) [2, 4]: 5050 ± 267 ng·h/mL
Tmax [2, 4]: 0.75 h
Cmax ([2]; acteoside in rat plasma, oral acteoside 100 mg/kg, UCP group, n = 6, read-out: Cmax): 1030 ± 98.3 ng/mL
MRT last [2, 4]: 4.94 ± 0.165 h
MRT inf [2, 4]: 5.29 ± 0.629 h
AUC(0-t) ([2]; acteoside in rat plasma, oral acteoside 100 mg/kg, WCP group (21 days WCP before), n = 6): 6660 ± 543 ng·h/mL
AUC(0-inf) [2, 5]: 6690 ± 633 ng·h/mL
Tmax [2, 5]: 0.75 h
Cmax ([2]; acteoside in rat plasma, oral acteoside 100 mg/kg, WCP group, n = 6, read-out: Cmax): 1590 ± 103 ng/mL
MRT last [2, 5]: 4.996 ± 0.032 h
MRT inf [2, 5]: 5.6 ± 0.837 h
Cmax ([2]; rat plasma, oral acteoside 100 mg/kg, Control group, read-out: mean Cmax of acteoside): 863 ng/mL
Cmax ([2]; rat plasma, oral acteoside 100 mg/kg, UCP group, read-out: mean Cmax of acteoside): 1030 ng/mL
Cmax ([2]; rat plasma, oral acteoside 100 mg/kg, WCP group, read-out: mean Cmax of acteoside): 1590 ng/mL
AUC(0-∞) of acteoside, increase after UCP relative to control ([2]; rats, oral acteoside 100 mg/kg): 1.16 times
AUC(0-∞) of acteoside, increase after WCP relative to control ([2]; rats, oral acteoside 100 mg/kg): 1.54 times
Cmax of acteoside, UCP group relative to control group ([2]; rats, oral acteoside 100 mg/kg): 1.19 times
Cmax of acteoside, WCP group relative to control group ([2]; rats, oral acteoside 100 mg/kg): 1.84 times
t1/2 of acteoside, WCP group relative to UCP group ([2]; rats, oral acteoside 100 mg/kg): 1.18 times
Compound: C[C@@H]1O[C@@H](O[C@@H]2[C@@H](O)[C@H](OCCc3ccc(O)c(O)c3)O[C@H](CO)[C@H]2OC(=O)/C=C/c2ccc(O)c(O)c2)[C@H](O)[C@H](O)[C@H]1O [Acteoside, acteoside]

Freeze–thaw stability (RSD,%) ([1]; 25 ng/mL): 7.04%
Freeze–thaw stability (RSD,%) ([1]; 200 ng/mL): 5.78%
Freeze–thaw stability (RSD,%) ([1]; 1000 ng/mL): 4.24%
Short-term stability (RSD,%) ([1]; 25 ng/mL): 5.34%
Short-term stability (RSD,%) ([1]; 200 ng/mL): 3.26%
Short-term stability (RSD,%) ([1]; 1000 ng/mL): 2.44%
Post-preparation stability (RSD,%) ([1]; 25 ng/mL): 6.32%
Post-preparation stability (RSD,%) ([1]; 200 ng/mL): 4.89%
Post-preparation stability (RSD,%) ([1]; 1000 ng/mL): 3.21%
Long-term stability (RSD,%) ([1]; 25 ng/mL): 7.78%
Long-term stability (RSD,%) ([1]; 200 ng/mL): 5.86%
Long-term stability (RSD,%) ([1]; 1000 ng/mL): 4.63%
AUC(0-inf) [2, 6]: 42.5 ± 4.24 ng·h/mL
AUC(0-t) [2, 6]: 40.6 ± 3.24 ng·h/mL
Tmax [2, 6]: 0.25 h
half-life [2, 6]: 0.813 ± 0.129 h
Cmax [2, 7]: 30.3 ± 10.9 ng/mL
MRT last [2, 6]: 1.2 ± 0.132 h
MRT inf [2, 6]: 1.38 ± 0.145 h
AUC(0-inf) [2, 8]: 60.5 ± 5.72 ng·h/mL
AUC(0-t) [2, 8]: 56.5 ± 5.41 ng·h/mL
Tmax [2, 8]: 0.25 h
half-life [2, 8]: 0.908 ± 0.106 h
Cmax [2, 9]: 44.4 ± 14 ng/mL
MRT last [2, 8]: 1.19 ± 0.124 h
MRT inf [2, 8]: 1.46 ± 0.153 h
AUC(0-inf) [2, 10]: 91.3 ± 6.92 ng·h/mL
AUC(0-t) [2, 10]: 90.6 ± 6.73 ng·h/mL
Tmax [2, 10]: 0.25 h
half-life [2, 10]: 0.537 ± 0.116 h
Cmax [2, 11]: 71.4 ± 32 ng/mL
MRT last [2, 10]: 1.27 ± 0.139 h
MRT inf [2, 10]: 1.54 ± 0.168 h
Cmax of metabolite, WCP group relative to UCP group ([2]; rats): 1.61 times
Compound: OCCc1ccc(O)c(O)c1 [Hydroxytyrosol, hydroxytyrosol]

Freeze–thaw stability (RSD,%) ([1]; 25 ng/mL): 9.14%
Freeze–thaw stability (RSD,%) ([1]; 200 ng/mL): 8.23%
Freeze–thaw stability (RSD,%) ([1]; 1000 ng/mL): 7.08%
Short-term stability (RSD,%) ([1]; 25 ng/mL): 7.78%
Short-term stability (RSD,%) ([1]; 200 ng/mL): 7.34%
Short-term stability (RSD,%) ([1]; 1000 ng/mL): 4.91%
Post-preparation stability (RSD,%) ([1]; 25 ng/mL): 8.33%
Post-preparation stability (RSD,%) ([1]; 200 ng/mL): 7.87%
Post-preparation stability (RSD,%) ([1]; 1000 ng/mL): 6.87%
Long-term stability (RSD,%) ([1]; 25 ng/mL): 9.75%
Long-term stability (RSD,%) ([1]; 200 ng/mL): 8.56%
Long-term stability (RSD,%) ([1]; 1000 ng/mL): 8.43%
AUC(0-inf) [2, 6]: 110 ± 15.4 ng·h/mL
AUC(0-t) [2, 6]: 76.1 ± 13.3 ng·h/mL
Tmax [2, 6]: 0.75 h
half-life [2, 6]: 2.17 ± 0.693 h
Cmax [2, 7]: 30.4 ± 14.2 ng/mL
MRT last [2, 6]: 1.56 ± 0.172 h
MRT inf [2, 6]: 2.51 ± 0.273 h
AUC(0-inf) [2, 8]: 117 ± 13.3 ng·h/mL
AUC(0-t) [2, 8]: 100 ± 17.7 ng·h/mL
Tmax [2, 8]: 0.75 h
Cmax [2, 9]: 44.1 ± 15.8 ng/mL
MRT last [2, 8]: 1.54 ± 0.166 h
MRT inf [2, 8]: 2.18 ± 0.267 h
AUC(0-inf) [2, 10]: 144 ± 26.7 ng·h/mL
AUC(0-t) [2, 10]: 125 ± 25.9 ng·h/mL
Tmax [2, 10]: 0.75 h
half-life [2, 10]: 1.29 ± 0.914 h
Cmax [2, 11]: 55.5 ± 16.9 ng/mL
MRT last [2, 10]: 1.52 ± 0.161 h
MRT inf [2, 10]: 2.1 ± 0.256 h
Cmax of metabolite, WCP group relative to UCP group ([2]; rats): 1.26 times
Compound: O=C(O)/C=C/c1ccc(O)c(O)c1 [Caffeic acid, caffeic acid]
